Literature values as cited in US9046534B2, “Methods and systems for identifying and treating anti-progestin sensitive tumors” (INVIVIS PHARMACEUTICALS INC., priority 2011, dated 2015).

Assays:
[1] = human subjects; an increase is an undesirable side-effect for breast cancer therapy
PR = molecular target: T1, PR (Homo sapiens, UniProt P06401); conditions: in vitro systems; aggregates produced by an artificial ligand bound to the PR
T1 sequence (P06401 1-933): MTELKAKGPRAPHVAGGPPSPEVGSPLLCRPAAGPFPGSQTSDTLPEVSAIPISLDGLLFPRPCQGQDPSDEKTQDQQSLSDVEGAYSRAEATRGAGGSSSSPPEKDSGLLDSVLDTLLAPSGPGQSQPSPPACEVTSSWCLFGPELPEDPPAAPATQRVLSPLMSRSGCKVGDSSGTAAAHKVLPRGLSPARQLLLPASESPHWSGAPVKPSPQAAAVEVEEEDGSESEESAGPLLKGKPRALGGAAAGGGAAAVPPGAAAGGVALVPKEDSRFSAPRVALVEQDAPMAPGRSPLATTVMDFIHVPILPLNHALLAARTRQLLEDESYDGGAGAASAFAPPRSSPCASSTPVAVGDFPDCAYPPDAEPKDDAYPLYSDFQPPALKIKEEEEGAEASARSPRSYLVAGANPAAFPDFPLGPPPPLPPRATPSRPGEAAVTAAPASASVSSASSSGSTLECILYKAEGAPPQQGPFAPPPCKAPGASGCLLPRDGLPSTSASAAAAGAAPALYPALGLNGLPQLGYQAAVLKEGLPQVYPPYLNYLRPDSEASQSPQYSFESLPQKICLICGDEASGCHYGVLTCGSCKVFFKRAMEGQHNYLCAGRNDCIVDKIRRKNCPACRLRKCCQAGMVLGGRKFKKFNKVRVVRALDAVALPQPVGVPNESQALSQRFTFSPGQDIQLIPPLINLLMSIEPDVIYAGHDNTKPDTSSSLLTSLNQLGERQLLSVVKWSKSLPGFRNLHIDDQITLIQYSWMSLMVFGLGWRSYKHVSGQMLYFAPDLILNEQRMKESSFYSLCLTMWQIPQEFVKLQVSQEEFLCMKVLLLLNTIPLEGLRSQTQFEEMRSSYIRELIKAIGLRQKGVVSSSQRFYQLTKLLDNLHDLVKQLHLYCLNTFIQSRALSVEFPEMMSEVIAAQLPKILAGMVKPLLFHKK

breast cancer = conditions: first line hormone treatment, small breast cancer study
advanced breast cancer = conditions: 101 poor prognosis patients with advanced breast cancer, progressed despite prior hormonal therapy (tamoxifen)
[2] = tested on: progesterone responsive genes; conditions: compared with progestins and other anti-progestins, which activate progesterone responsive genes

CN(C)c1ccc([C@H]2C[C@]3(C)[C@@H](CC[C@]3(O)CCCO)C3CCC4=CC(=O)CCC4=C32)cc1 (stereo in doubt) [Onapristone, (8S,11R,13R,14S,17S)-11-[4-(dimethylamino)phenyl]-17-hydroxy-17-(3-hydroxypropyl)-13-methyl-1,2,6,7,8,11,12,14,15,16-decahydrocyclopenta[a]phenanthren-3-one]
effect on estrogen secretion [1]: does not increase estrogen secretion | effect on PR nuclear aggregates (PR): reverse the PR nuclear aggregates | objective response rate (breast cancer): 56% | response rate (advanced breast cancer): 10% | activation of progesterone responsive genes (number of genes activated) [2]: 3 genes
